Source: BigSolDB 2.1

## CC(=O)Nc1ccc([N+](=O)[O-])cc1
In 1,4-dioxane, 288.15 K
  solubility (mole fraction): 0.00627
In 1,4-dioxane, 293.15 K
  solubility (mole fraction): 0.00697
In 1,4-dioxane, 298.15 K
  solubility (mole fraction): 0.00787
In 1,4-dioxane, 303.15 K
  solubility (mole fraction): 0.00907
In 1,4-dioxane, 308.15 K
  solubility (mole fraction): 0.0107
In 1,4-dioxane, 313.15 K
  solubility (mole fraction): 0.0127
In 1,4-dioxane, 318.15 K
  solubility (mole fraction): 0.0151
In 1,4-dioxane, 323.15 K
  solubility (mole fraction): 0.0182
In DMF, 278.15 K
  solubility (mole fraction): 0.102
In DMF, 283.15 K
  solubility (mole fraction): 0.107
In DMF, 288.15 K
  solubility (mole fraction): 0.112
In DMF, 293.15 K
  solubility (mole fraction): 0.118
In DMF, 298.15 K
  solubility (mole fraction): 0.126
In DMF, 303.15 K
  solubility (mole fraction): 0.135
In DMF, 308.15 K
  solubility (mole fraction): 0.145
In DMF, 313.15 K
  solubility (mole fraction): 0.156
In DMF, 318.15 K
  solubility (mole fraction): 0.171
In DMF, 323.15 K
  solubility (mole fraction): 0.187
In NMP, 278.15 K
  solubility (mole fraction): 0.0745
In NMP, 283.15 K
  solubility (mole fraction): 0.0841
In NMP, 288.15 K
  solubility (mole fraction): 0.0984
In NMP, 293.15 K
  solubility (mole fraction): 0.111
In NMP, 298.15 K
  solubility (mole fraction): 0.126
In NMP, 303.15 K
  solubility (mole fraction): 0.144
In NMP, 308.15 K
  solubility (mole fraction): 0.163
In NMP, 313.15 K
  solubility (mole fraction): 0.184
In NMP, 318.15 K
  solubility (mole fraction): 0.21
In NMP, 323.15 K
  solubility (mole fraction): 0.244
In acetonitrile, 278.15 K
  solubility (mole fraction): 0.00235
In acetonitrile, 283.15 K
  solubility (mole fraction): 0.00271
In acetonitrile, 288.15 K
  solubility (mole fraction): 0.00325
In acetonitrile, 293.15 K
  solubility (mole fraction): 0.00386
In acetonitrile, 298.15 K
  solubility (mole fraction): 0.00456
In acetonitrile, 303.15 K
  solubility (mole fraction): 0.00545
In acetonitrile, 308.15 K
  solubility (mole fraction): 0.0065
In acetonitrile, 313.15 K
  solubility (mole fraction): 0.00778
In acetonitrile, 318.15 K
  solubility (mole fraction): 0.00923
In acetonitrile, 323.15 K
  solubility (mole fraction): 0.011
In cyclohexane, 283.15 K
  solubility (mole fraction): 1.94e-06
In cyclohexane, 288.15 K
  solubility (mole fraction): 2.71e-06
In cyclohexane, 293.15 K
  solubility (mole fraction): 3.77e-06
In cyclohexane, 298.15 K
  solubility (mole fraction): 5.18e-06
In cyclohexane, 303.15 K
  solubility (mole fraction): 6.81e-06
In cyclohexane, 308.15 K
  solubility (mole fraction): 8.98e-06
In cyclohexane, 313.15 K
  solubility (mole fraction): 1.16e-05
In cyclohexane, 318.15 K
  solubility (mole fraction): 1.49e-05
In cyclohexane, 323.15 K
  solubility (mole fraction): 1.91e-05
In ethanol, 278.15 K
  solubility (mole fraction): 0.00182
In ethanol, 283.15 K
  solubility (mole fraction): 0.00222
In ethanol, 288.15 K
  solubility (mole fraction): 0.00265
In ethanol, 293.15 K
  solubility (mole fraction): 0.00318
In ethanol, 298.15 K
  solubility (mole fraction): 0.00377
In ethanol, 303.15 K
  solubility (mole fraction): 0.00458
In ethanol, 308.15 K
  solubility (mole fraction): 0.00542
In ethanol, 313.15 K
  solubility (mole fraction): 0.00641
In ethanol, 318.15 K
  solubility (mole fraction): 0.00772
In ethanol, 323.15 K
  solubility (mole fraction): 0.00921
In ethyl acetate, 278.15 K
  solubility (mole fraction): 0.00357
In ethyl acetate, 283.15 K
  solubility (mole fraction): 0.00414
In ethyl acetate, 288.15 K
  solubility (mole fraction): 0.00481
In ethyl acetate, 293.15 K
  solubility (mole fraction): 0.00562
In ethyl acetate, 298.15 K
  solubility (mole fraction): 0.00682
In ethyl acetate, 303.15 K
  solubility (mole fraction): 0.00824
In ethyl acetate, 308.15 K
  solubility (mole fraction): 0.00993
In ethyl acetate, 313.15 K
  solubility (mole fraction): 0.0118
In ethyl acetate, 318.15 K
  solubility (mole fraction): 0.0144
In ethyl acetate, 323.15 K
  solubility (mole fraction): 0.0171
In ethylene glycol, 278.15 K
  solubility (mole fraction): 0.000807
In ethylene glycol, 283.15 K
  solubility (mole fraction): 0.000953
In ethylene glycol, 288.15 K
  solubility (mole fraction): 0.00114
In ethylene glycol, 293.15 K
  solubility (mole fraction): 0.00141
In ethylene glycol, 298.15 K
  solubility (mole fraction): 0.00171
In ethylene glycol, 303.15 K
  solubility (mole fraction): 0.00208
In ethylene glycol, 308.15 K
  solubility (mole fraction): 0.00246
In ethylene glycol, 313.15 K
  solubility (mole fraction): 0.00301
In ethylene glycol, 318.15 K
  solubility (mole fraction): 0.00367
In ethylene glycol, 323.15 K
  solubility (mole fraction): 0.00451
In isobutanol, 278.15 K
  solubility (mole fraction): 0.00132
In isobutanol, 283.15 K
  solubility (mole fraction): 0.00158
In isobutanol, 288.15 K
  solubility (mole fraction): 0.00193
In isobutanol, 293.15 K
  solubility (mole fraction): 0.00233
In isobutanol, 298.15 K
  solubility (mole fraction): 0.00284
In isobutanol, 303.15 K
  solubility (mole fraction): 0.00335
In isobutanol, 308.15 K
  solubility (mole fraction): 0.00405
In isobutanol, 313.15 K
  solubility (mole fraction): 0.00488
In isobutanol, 318.15 K
  solubility (mole fraction): 0.00602
In isobutanol, 323.15 K
  solubility (mole fraction): 0.00728
In isopropanol, 278.15 K
  solubility (mole fraction): 0.00166
In isopropanol, 283.15 K
  solubility (mole fraction): 0.00201
In isopropanol, 288.15 K
  solubility (mole fraction): 0.00241
In isopropanol, 293.15 K
  solubility (mole fraction): 0.00292
In isopropanol, 298.15 K
  solubility (mole fraction): 0.00348
In isopropanol, 303.15 K
  solubility (mole fraction): 0.00436
In isopropanol, 308.15 K
  solubility (mole fraction): 0.00515
In isopropanol, 313.15 K
  solubility (mole fraction): 0.0062
In isopropanol, 318.15 K
  solubility (mole fraction): 0.00736
In isopropanol, 323.15 K
  solubility (mole fraction): 0.00868
In methanol, 278.15 K
  solubility (mole fraction): 0.00147
In methanol, 283.15 K
  solubility (mole fraction): 0.00182
In methanol, 288.15 K
  solubility (mole fraction): 0.00215
In methanol, 293.15 K
  solubility (mole fraction): 0.00261
In methanol, 298.15 K
  solubility (mole fraction): 0.00312
In methanol, 303.15 K
  solubility (mole fraction): 0.00366
In methanol, 308.15 K
  solubility (mole fraction): 0.00441
In methanol, 313.15 K
  solubility (mole fraction): 0.00543
In methanol, 318.15 K
  solubility (mole fraction): 0.0065
In methanol, 323.15 K
  solubility (mole fraction): 0.00772
In n-butanol, 278.15 K
  solubility (mole fraction): 0.00225
In n-butanol, 283.15 K
  solubility (mole fraction): 0.0026
In n-butanol, 288.15 K
  solubility (mole fraction): 0.00308
In n-butanol, 293.15 K
  solubility (mole fraction): 0.0036
In n-butanol, 298.15 K
  solubility (mole fraction): 0.0043
In n-butanol, 303.15 K
  solubility (mole fraction): 0.00512
In n-butanol, 308.15 K
  solubility (mole fraction): 0.0062
In n-butanol, 313.15 K
  solubility (mole fraction): 0.0074
In n-butanol, 318.15 K
  solubility (mole fraction): 0.00894
In n-butanol, 323.15 K
  solubility (mole fraction): 0.0106
In n-heptanol, 278.15 K
  solubility (mole fraction): 0.00264
In n-heptanol, 283.15 K
  solubility (mole fraction): 0.00303
In n-heptanol, 288.15 K
  solubility (mole fraction): 0.00354
In n-heptanol, 293.15 K
  solubility (mole fraction): 0.00417
In n-heptanol, 298.15 K
  solubility (mole fraction): 0.00508
In n-heptanol, 303.15 K
  solubility (mole fraction): 0.00621
In n-heptanol, 308.15 K
  solubility (mole fraction): 0.00742
In n-heptanol, 313.15 K
  solubility (mole fraction): 0.00911
In n-heptanol, 318.15 K
  solubility (mole fraction): 0.0108
In n-heptanol, 323.15 K
  solubility (mole fraction): 0.013
In n-propanol, 278.15 K
  solubility (mole fraction): 0.0021
In n-propanol, 283.15 K
  solubility (mole fraction): 0.00251
In n-propanol, 288.15 K
  solubility (mole fraction): 0.00297
In n-propanol, 293.15 K
  solubility (mole fraction): 0.00352
In n-propanol, 298.15 K
  solubility (mole fraction): 0.00418
In n-propanol, 303.15 K
  solubility (mole fraction): 0.00496
In n-propanol, 308.15 K
  solubility (mole fraction): 0.00595
In n-propanol, 313.15 K
  solubility (mole fraction): 0.00714
In n-propanol, 318.15 K
  solubility (mole fraction): 0.00856
In n-propanol, 323.15 K
  solubility (mole fraction): 0.0101
In water, 278.15 K
  solubility (mole fraction): 6.37e-06
In water, 283.15 K
  solubility (mole fraction): 7.72e-06
In water, 288.15 K
  solubility (mole fraction): 1.04e-05
In water, 293.15 K
  solubility (mole fraction): 1.34e-05
In water, 298.15 K
  solubility (mole fraction): 1.68e-05
In water, 303.15 K
  solubility (mole fraction): 2.23e-05
In water, 308.15 K
  solubility (mole fraction): 2.89e-05
In water, 313.15 K
  solubility (mole fraction): 3.67e-05
In water, 318.15 K
  solubility (mole fraction): 4.69e-05
In water, 323.15 K
  solubility (mole fraction): 6.01e-05
